Assay results taken from patent US7183061B2, “Method of expressing Heliothis ecdysone receptor fusion protein” (Syngenta Limited, priority 1996, dated 2007).

Legend:
[1] = biological target: T1, glucocorticoid/Drosophila ecdysone chimeric receptor (UniProt P04150+P34021); test: Maize protoplast GUS reporter assay with pMF6GREcRS and p221.9GRE6; assay type: cell-based; conditions: maize protoplasts, reporter plus effector
T1 construct: expressed in transfected cells; host or cells: maize suspension-culture protoplasts
T1 sequence (P04150+P34021 with tags, fused parts or gaps): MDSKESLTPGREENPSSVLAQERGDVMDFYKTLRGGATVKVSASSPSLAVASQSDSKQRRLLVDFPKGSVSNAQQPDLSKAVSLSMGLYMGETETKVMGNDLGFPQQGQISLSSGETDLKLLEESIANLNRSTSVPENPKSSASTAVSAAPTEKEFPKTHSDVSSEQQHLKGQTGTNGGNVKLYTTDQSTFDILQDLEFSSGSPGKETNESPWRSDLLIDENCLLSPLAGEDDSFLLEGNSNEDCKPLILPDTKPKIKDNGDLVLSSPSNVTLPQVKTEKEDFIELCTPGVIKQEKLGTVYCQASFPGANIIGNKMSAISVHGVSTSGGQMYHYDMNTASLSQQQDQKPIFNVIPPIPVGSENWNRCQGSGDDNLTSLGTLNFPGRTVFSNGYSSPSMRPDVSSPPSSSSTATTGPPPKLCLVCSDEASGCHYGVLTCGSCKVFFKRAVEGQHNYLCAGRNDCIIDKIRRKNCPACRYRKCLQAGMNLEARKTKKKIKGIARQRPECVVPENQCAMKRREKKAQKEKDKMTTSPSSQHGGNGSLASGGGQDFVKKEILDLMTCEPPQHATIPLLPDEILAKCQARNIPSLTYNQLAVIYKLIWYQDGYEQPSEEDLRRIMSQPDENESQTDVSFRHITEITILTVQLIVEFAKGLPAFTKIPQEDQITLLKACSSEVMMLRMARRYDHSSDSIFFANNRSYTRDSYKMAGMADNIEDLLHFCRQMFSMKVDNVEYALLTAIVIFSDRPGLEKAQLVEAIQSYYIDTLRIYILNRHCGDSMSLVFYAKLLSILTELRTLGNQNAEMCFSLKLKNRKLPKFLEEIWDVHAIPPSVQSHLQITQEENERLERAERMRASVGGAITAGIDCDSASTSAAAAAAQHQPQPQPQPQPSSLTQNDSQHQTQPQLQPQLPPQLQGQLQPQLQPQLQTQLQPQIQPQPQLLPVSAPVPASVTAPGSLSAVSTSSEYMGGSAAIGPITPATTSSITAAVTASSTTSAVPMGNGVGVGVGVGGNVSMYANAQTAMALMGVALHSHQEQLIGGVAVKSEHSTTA
Protocol: Protoplasts were isolated from a maize suspension culture derived from BE70×A188 embryogenic callus material, which was maintained by subculturing twice weekly in MS0.5mod. (MS medium supplemented with 3% sucrose, 690 mg/l proline, 1 g/l myo-inositol, 0.2 g/l casein acid hydrolysate, 0.5 mg/l 2,4-D, pH 5.6). Cells from suspensions two days post subculture were digested in enzyme mixture (2.0% Cellulase RS, 0.2% Pectolyase Y23, 0.5 M Mannitol, 5 mM CaCl2.2H2O, 0.5% MES, pH 5.6, ˜660 mmol/kg) using ˜10 ml/g cells, incubating at 25° C., dim light, rotating gently for ˜2 hours. The digestion mixture was sieved sequentially through 250 μm and 38 μm sieves, and the filtrate centrifuged at 700 rpm for 3.5 minutes, discarding the supernatant. The protoplasts were resuspended in wash buffer (0.358 M KCl, 1.0 mM NH4NO3, 5.0 mM CaCl2.2H2O, 0.5 mM KH2PO4, pH 4.8, ˜670 mmol/kg) and pelleted as before. This washing step was repeated. The pellet was resuspended in wash buffer and the protoplasts were counted. Transformation was achieved using a Polyethylene glycol method based on Negrutiu et al. Protoplasts were resuspended at 2×10^6/ml in MaMg medium (0.4 M Mannitol, 15 mM MgCl2, 0.1% MES, pH 5.6, ˜450 mmol/kg) aliquotting 0.5 ml/treatment (i.e. 1×10^6 protoplasts/treatment). Samples were heat shocked at 45° C. for 5 minutes then cooled to room temperature. 10 μg each of p221.9GRE6 and pMF6HR1PAT (GR) (1 mg/ml)/treatment were added and mixed in gently, followed by immediate addition of 0.5 ml warm (˜45° C.) PEG solution (40% PEG 3,350 MW in 0.4 M Mannitol, 0.1 M Ca(NO3)2, pH 8.0), which was mixed in thoroughly but gently. Treatments were incubated at room temperature for 20–25 minutes, then 5 ml 0.292 M KCl (pH 5.6, ˜530 mmol/kg) was added step-wise, 1 ml at a time, with mixing. The treatments were incubated for a further 10–15 minutes prior to pelleting the protoplasts by centrifuging as before. […] Protein concentrations of tissue homogenates were determined by the Bio-Rad protein assay (Bradford, 1976). […]

[2] = biological target: T2, glucocorticoid/Heliothis ecdysone chimeric receptor (UniProt O18473+P04150); test: HEK293 cells co-transfected with pcDNA3GRHEcR and pSWGRE4 (β-galactosidase reporter); assay type: cell-based, Heliothis virescens; design: expressed in transfected cells; host or cells: HEK293 (A8); conditions: co-transformed HEK293 cells (FIG. 28)
T2 sequence (P04150+O18473 with tags, fused parts or gaps): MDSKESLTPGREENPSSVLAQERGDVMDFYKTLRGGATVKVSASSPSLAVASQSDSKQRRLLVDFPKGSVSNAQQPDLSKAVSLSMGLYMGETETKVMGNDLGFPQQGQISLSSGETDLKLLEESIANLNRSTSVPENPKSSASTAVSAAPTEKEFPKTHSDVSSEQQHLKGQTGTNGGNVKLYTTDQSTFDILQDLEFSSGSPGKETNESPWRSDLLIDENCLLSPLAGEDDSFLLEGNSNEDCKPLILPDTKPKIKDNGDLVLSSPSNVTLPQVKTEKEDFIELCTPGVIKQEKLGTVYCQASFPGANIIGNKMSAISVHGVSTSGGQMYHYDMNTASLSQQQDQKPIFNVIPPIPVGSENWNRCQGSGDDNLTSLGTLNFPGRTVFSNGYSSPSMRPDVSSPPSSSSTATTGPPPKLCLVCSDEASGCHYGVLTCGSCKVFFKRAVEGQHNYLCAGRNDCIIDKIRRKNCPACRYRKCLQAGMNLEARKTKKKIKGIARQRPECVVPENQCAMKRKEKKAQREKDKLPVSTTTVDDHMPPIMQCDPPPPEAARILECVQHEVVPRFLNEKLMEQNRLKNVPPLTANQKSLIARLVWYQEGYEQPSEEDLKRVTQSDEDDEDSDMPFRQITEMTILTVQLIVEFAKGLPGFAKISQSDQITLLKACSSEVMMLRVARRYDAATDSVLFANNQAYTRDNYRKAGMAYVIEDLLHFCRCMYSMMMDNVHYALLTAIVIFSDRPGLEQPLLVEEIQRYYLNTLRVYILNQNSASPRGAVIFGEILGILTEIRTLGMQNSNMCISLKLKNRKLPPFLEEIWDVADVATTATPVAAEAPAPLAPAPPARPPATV
Protocol: Transfections of mammalian cell lines (CHO-K1 Chinese hamster ovary) ATCC number CCL61 or cos-1 (Monkey cell line) were performed using either calcium phosphate precipitation (Gorman, Chapter 6 of “DNA cloning: a practical approach. Vol 2 D. M. Glover ed/.(1985) IRL Press, Oxford) or using LipofectAMINE (Gibco BRL Cat. No. 18324–012, following manufacturer's instructions). […] 293 cells were transfected using analogous methods.
The mammalian expression vector used in this experiment was pcDNA3 (Invitrogen). The GRHEcR 2.7 kb BamHI DNA fragment (isolated from pMF6GRHEcR) was introduced into the pcDNA3 BamHI vector. The recombinants were oriented by restriction enzyme mapping. The DNA sequence of the junctions was determined to ensure correct orientation and insertion (pcDNA3GRHEcR, FIG. 25).
The reporter plasmid for mammalian cell system was produced by taking pSWBGAL plasmid and replacing the CRESW SpeI/ClaI fragment for a synthetic 105 bp DNA fragment containing 4 copies of the glucocorticoid response element (GRE) and flanked by SpeI at the 5′ end and AflII at the 3′ end.
The two oligonucleotides were purified annealed and ligated to pSWBGAL SpeI/AflII to produce pSWGRE4 (FIG. 26).

## CC(C)CC[C@@H](O)[C@](C)(O)[C@H]1CC[C@@]2(O)C3=CC(=O)[C@]4(O)C[C@@H](O)[C@@H](O)C[C@]4(C)[C@H]3[C@H](O)C[C@]12C [Muristerone A]
[1]; 100 μM
  marker gene activity: significant elevation of marker gene activity
[2]
  chemical induced reporter gene activity: induction of reporter activity was observed

## CCc1ccc(C(=O)NN(C(=O)c2cc(C)cc(C)c2)C(C)(C)C)cc1 [RH5992, 3,5-dimethylbenzoic acid 1-1(1,1-dimethylethyl)-2(4-ethylbenzoyl)hydrazide]
[1]; concentration not given
  chemical induced reporter gene activity / induced levels of expression: no chemical induced reporter gene activity
[2]
  chemical induced reporter gene activity: significant chemical induced reporter gene activity
